Measurements: US20230101903A1, “COMPOUNDS USEFUL AS ANTI-VIRAL AGENTS” (NATURE CRETE PHARMACEUTICALS PC, priority 2020, published 2023)
Values after ≈ are worked out from the molar mass of the structure shown. Read-outs that look alike come from different tables or passages of the source.

Tests used:
Influenza A/FM/1/47/H1N1 [1] = assay: virus titer of supernatants of infected MDCK-II cells (plaque titration); assay type: cell-based, human Influenza A/FM/1/47/H1N1 strain
Description: (§1) All assays in Examples 1, 2, 4 and 5 were performed with the human Influenza A/FM/1/47/H1N1 strain, and canine MDCK-II cells, whilst in Example 7 VERO E6 monkey kidney cells were used.
MDCK-II cells in Minimal Essential Medium (MEM) were seeded into a 6-well plate and incubated at 37° C. The following day, the cells were infected with influenza A/FM/1/47/H1N1 and incubated at 37° C. for 2 hours, followed by washing extensively with serum free MEM.
The infected cells were then cultured in media supplemented with varying concentrations of Compound A at 37° C. for 24 to 48 hours. Supernatants of the infected cells, containing the newly synthesised virions, were harvested and titrated in MDCK-II cells. Upon plaque formation, the infected cells were washed with phosphate-buffered saline (PBS) and fixed with paraformaldehyde. Cell monolayers were stained with crystal violet and observed microscopically.

[2] = system: influenza virus A/FM/1/47/H1N1; assay: Real-Time PCR of newly synthesized viral RNA (M1 genome copies) in infected MDCK-II cells; assay type: cell-based, human Influenza A/FM/1/47/H1N1 strain; conditions: 12 hours
Description: as §1
MDCK-II cells were plated in 12-well plates. After overnight incubation, the cells were washed with phosphate-buffer saline (PBS) and infected with influenza virus A/FM/1/47/H1N1) for 2 hours at 37° C.
The inoculum was then removed and the cells were incubated with MEM containing various concentrations of Compound A for 12 hours.

[3] = system: SARS-CoV-2 (isolate 30-287); assay: microbe, parasite or virus in culture; assay type: cell-based; conditions: Severe acute respiratory syndrome coronavirus 2, Vero C1008, VERO E6 cells, 96 hours, read-out: IC50, synthesis of new viral RNA
Influenza A/FM/1/47/H1N1 [4] = assay: plaque-reduction assay in MDCK-II cells; assay type: cell-based, human Influenza A/FM/1/47/H1N1 strain; conditions: 72 hours, all concentrations above 200 ng/mL
Description: as §1
The antiviral activity of p-cymene in Influenza A/FM/1/47/H1N1 was assayed in a plaque-reduction assay (expressed in forming plaques).
Canine MDCK-II cells were seeded into 6-well plastic plates and cultured at 37° C. under 5% CO2 for 24 hours. The MDCK-II cells were then inoculated with Influenza A/FM/1/47/H1N1 for 2 hours, after which the infected cells were washed and cultured for 72 hours at 37° C. under 5% CO2 in the presence of different concentrations of p-cymene in Minimum Essential Medium (MEM). Ribavirin was used as a control at a concentration of 25 μM.
After incubation, the virus-infected cells were observed microscopically. After 3 days of infection, cells were fixed with paraformaldehyde and cell monolayers were stained with crystal violet.

[5] = system: influenza virus A/FM/1/47; assay: intracellular viral nucleoprotein (NP) by Western Blot Analysis in infected cells; assay type: cell-based, human Influenza A/FM/1/47/H1N1 strain; conditions: p-cymene 200 ng/mL; 7, 10 and 24 hours after infection
Description: as §1
Intracellular viral nucleoprotein (NP) concentration was quantified by Western Blot Analysis at 7, 10 and 24 hours after infection.
A six-well culture plate was seeded with cells, which were then incubated at 37° C. for 24 hours under 5% CO2. The cells were infected with influenza virus A/FM/1/47 at 37° C. for 1 hour and then p-cymene was added (200 ng/mL). The cells were harvested at the indicated time periods (7h, 10h and 24h). The lysates were incubated for 20 min on ice and then centrifuged at 14,000×g for 10 min at 4° C. The supernatants were collected and equal amounts of proteins were resolved by sodium dodecyl sulfate (10%) polyacrylamide gel electrophoresis.

[6] = pre-incubation (2 hours before infection)

Compound | virus titer (Influenza A/FM/1/47/H1N1 [1]; MDCK-II cells, 24 and 48 hpi, varying concentrations) | anti-viral action (conclusion of the in vitro studies) (Influenza A/FM/1/47/H1N1 [1]; compared with ribavirin) | synthesis of new viral RNA ([2]; all concentrations tested) | viral M1 genome copy numbers ([2]; nuclear RNA) | IC50 ([3]; co-incubation) | IC50 [3, 6] | plaque formation (number of forming plaques) (Influenza A/FM/1/47/H1N1 [4]) | amount of intracellular viral nucleoprotein (NP) [5]
CCCOCC(CC)c1ccc(C)cc1 (stereo not shown) [Compound A] | significantly decreased virus titer | significant anti-viral action, comparable with that of ribavirin | inhibits | decreased | 38 µg/mL | 9 µg/mL (≈ 43.6 µM) |  | 
Cc1ccc(C(C)C)cc1 [p-cymene] |  |  |  |  | 83 µg/mL | 59 µg/mL (≈ 440 µM) | significant, dose-dependent decrease of plaque formation | significantly decreased
